Entries after “also recorded” stand apart in the source; their conditions may differ.
What was measured:
[1] = Oral allantoin administration (gavage), plasma allantoin levels in rats; format: in vivo, Sprague Dawley rats
Description: Rats also received oral allantoin via gastric gavage. Rats were firmly restrained via grasping the loose skin of the neck and back to immobilize the head. While maintaining the rat in an upright position, the gavage needle (20 G×1½″) was passed through the side of the mouth and advanced into the esophagus by following the roof of the mouth and advanced further toward the stomach. After the needle was passed to the correct length, 125 mg of allantoin, dissolved in water or water, was injected. This procedure was repeated daily for five days.
For plasma analysis of allantoin venous blood was obtained from the right ventricle (rat) and collected from repeated blood draws (African green monkey). Blood was immediately centrifuged at 10,500 rpms (this needs to be in G) for 5 minutes. Supernatant was then removed and analyzed for allantoin. […] Following a 15 minute incubation, absorbance was read on a spectrometer at 340 nm. […] Following a 10 minute incubation absorbance was once again measured at 340 nm. The final absorbance was subtracted from the absorbance following the addition of allantoinase. […]
Rats received oral allantoin or water via gavage once daily for 5 days. […] Allantoin levels in plasma were determined utilizing the enzymatic detection assay. […]

[2] = system: NOX-1 expression in the SN; test: NOX-1 immunohistochemistry, counts of NOX-1ir cells in the SN after 6-OHDA; format: in vivo, Sprague Dawley rats
Description: Rats were anesthetized prior to surgery with Equi-Thesin (0.3 ml/100 g body weight i.p.; chloral hydrate 42.5 mg/ml+sodium pentobarbital 9.72 mg/ml), their heads shaved, and then they were placed in a stereotaxic frame. Their skin was swabbed with Betadyne followed by 70% ETOH. The scalp was then opened to expose the skull. Two 1 mm holes were drilled into the skull and rats were injected in two sites in the striatum with 6-OHDA (MP Biomedicals, Solon, Ohio; 5 μg/μl 6-OHDA in 0.2% ascorbic acid, 0.9% saline solution). The coordinates for these injections were AP −1.6 mm, ML +2.4 mm, DV −4.2 mm and AP −0.2 mm, +ML 2.6 mm, DV −7.0 mm. The needle was zeroed at the skull directly above the injection site in order to target the DV coordinate. For each injection, the needle was lowered slowly to the injection site and 1 minute elapsed before injection commenced, 6-OHDA was injected at 0.5 μl/minute and at the end of the injection the needle was held in place for an additional 2 minutes prior to retraction. The wound area was cleaned with Betadine solution and the scalp was closed with surgical wound clips. This lesion paradigm results in a progressive loss of TH phenotype and frank DA cell death.
Brains were frozen on dry ice and sectioned at a 40 μm thickness using a sliding microtome. Every sixth section through the midbrain was for incubated 30 minutes in sodium citrate 10 mM at 80 degrees Celsius. Following blocking in 10% normal goat serum, tissue was incubated in primary antisera directed against NOX-1 (Santa Cruz Biotechnology, Santa Cruz, Calif., 1:1000). Following primary incubation, sections were incubated in biotinylated secondary antisera against rabbit IgG (Vector Laboratory, Burlingame, Calif., 1:200) followed by the Vector ABC detection kit employing horseradish peroxidase. Antibody labeling was visualized by exposure to 0.5 mg/ml 3,3′ diaminobenzidine (DAB) and 0.03% H2O2 in Tris buffer. Sections were mounted on subbed slides, dehydrated to xylene and coverslipped with Cytoseal.
Absolute counts of NOX-1ir cells was performed using a BX52 Olympus microscope interfaced with Microbrightfield stereological software and a Microfire CCD camera. Counts of NOX1-ir neurons were made at 20× and the sum of these values was adjusted according to the method of Abercrombie (Abercrombie, M., Estimation of nuclear populations from microtome sections, Anat. Rec. 94:239-247 (1946)). To assure that no cells were excluded or counted more than once, each cell was marked utilizing StereoInvestigator 7.0 (Microbrightfield Williston, Vt.). The total number of markers recorded by the software was utilized to estimate the total number of NOX-1ir cells (Fawcettt, et al., Dopaminergic neuronal survival and the effects of bFGF in explant, three dimensional and monolayer cultures of embryonic rat ventral mesencephalon, Exp. Brain Res. 106:275-82 (1995)).
Increased NOX-1 expression is directly linked to increased oxidative stress (Vignais, P., The superoxide-generating NADPF oxidase: structural aspects and activation mechanism, Cell Mol. Life Sci. 59:1428-59 (2002)). To determine the effect of ALL on NOX-1 expression in the SN and Red Nucleus, animals received either ALL pellets (n=6) or sham implantation (n=6). Pellet implantation surgery took place 3 days prior to intrastriatal 6-OHDA infusion. Twenty-four hours post-lesion, animals were sacrificed via intracardial saline perfusion and the SN was processed for NOX-1 immunohistochemistry.

retinal ganglion cells = details: repeated i.p. every eight hours, optical nerve transection, adult rats; cited from earlier work
[3] = system: cortex and hippocampus apoptosis; details: twice daily i.p., neonatal MCA occlusion; cited from earlier work
[4] = s.c. ALL pellets 3 days prior to 6-OHDA, twenty-four hours post-lesion, vs untreated controls

SMILES | plasma allantoin levels ([1]; rat, 125 mg oral gavage once daily for 5 days, blood two hours following final dose, vs water) | negative health consequences ([1]; rats, oral allantoin once daily for 5 days) | number of NOX-1ir cells in the SN ([2]; s.c. ALL pellets 3 days prior to 6-OHDA, overall treatment effect) | number of NOX-1ir cells in the 6-OHDA lesioned SN [2, 4] | number of NOX-1ir cells in the intact SN [2, 4] | number of NOX-1ir cells in the 6-OHDA lesioned SN ([2]; s.c. ALL pellets 3 days prior to 6-OHDA, twenty-four hours post-lesion, vs untreated controls, listed as ALL) | NOX-1 expression induced by 6-OHDA ([2]; s.c. allantoin pellets, SN) | sparing of retinal ganglion cells (retinal ganglion cells) | Cytochrome C expression in the cortex and hippocampus [3] | TUNEL staining in the cortex and hippocampus [3]
NC(=O)NC1NC(=O)NC1=O (stereo not shown) [allantoin] | doubling; also recorded: significant increase | Neither the rats nor the monkeys exhibited any obvious negative health consequences | decreased | significant decrease | significant decrease | significantly reduced | significantly reduced | – | – | –
OC[C@H]1O[C@@H](n2cnc3c(O)ncnc32)[C@H](O)[C@@H]1O [inosine] | – | – | – | – | – | – | – | significant sparing | decreased | decreased

— patent US20120128654A1, “Allantoin Administration for the Treatment of Neurodegenerative Disease and Neurotrauma” (UNIVERSITY OF CINCINNATI, priority 2009, published 2012)
